Structures can show the parent of a compound that is named as a salt.
System: Angiotensin II (aortic blood vessel of a rabbit)
Experiment: Angiotensin II antagonistic effect, inhibition of A II-induced isometric tension change of isolated rabbit aortic blood vessel
Type: cell-based
Details: Oryctolagus cuniculus, 0.25 h; Concn. of drug substance 10^-5 M; A II 4×10^-9 M; 15 minutes treatment; read-out: Potency of inhibition
Method: Angiotensin II (hereinafter referred to briefly as A II) antagonistic effect of the compound (I) of the present invention (aortic blood vessel of a rabbit). The blood-vessel preparation and reaction were done in accordance with the method as described in "European Journal of Pharmacology", vol. 18, pp. 316 (1972). While employing A II in the concentration of 4×10^-9M, the potency of inhibition was calculated by the following equation from changes in isometric tension of the blood vessel brought about by A II and that found after treatment with a test drug substance for 15 minutes, respectively. [formula] where; T1 =Change in isometric tension of the blood vessel brought about by A II without treatment with a test drug substance (g) T2 =Change in tension found after treatment with a test drug substance (g)

Q: For `CN(C)c1ccc(-c2nc(Cl)c(CC(N)=O)n2Cc2ccccc2)cc1`, which inhibition at 10 µM is on record?
A: 10%

Q: With `O=C(O)Cc1nc(-c2ccccc2)n(Cc2ccccc2)c1Cl` as the molecule, how does the inhibition at 10 µM read?
A: 10%

Q: How did the inhibition at 10 µM turn out when `O=C(O)c1c(Cl)nc(-c2ccccc2)n1Cc1ccccc1` was run?
A: 5%

Q: `O=C(O)CCc1c(Cl)nc(-c2ccccc2)n1Cc1ccccc1` was tested. Which inhibition at 10 µM did it give?
A: 13%

Q: How did the inhibition at 10 µM turn out when `COc1ccc(-c2ncc(CC(=O)O)n2Cc2ccccc2)cc1` was run?
A: 5%

Q: How did the inhibition at 10 µM turn out when `CN(C)c1ccc(-c2nc(Cl)c(C(N)=O)n2Cc2ccccc2)cc1` was run?
A: 18%

Q: `COC(=O)Cc1cnc(-c2ccccc2)n1Cc1ccc([N+](=O)[O-])cc1` was tested. Which inhibition at 10 µM did it give?
A: 38%

Q: `O=C(O)Cc1c(Cl)nc(-c2ccccc2)n1CCc1ccccc1` [4-chloro-2-phenyl-1-phenethylimidazole-5-acetic acid hydrochloride] was tested. Which inhibition at 10 µM did it give?
A: 12%

Q: How did the inhibition at 10 µM turn out when `NC(=O)Cc1c(Cl)nc(-c2ccccc2)n1Cc1ccccc1` was run?
A: 20%

Q: For `CCCCn1c(-c2ccccc2)nc(Cl)c1CC(=O)O` [1-n-butyl-4-chloro-2-phenylimidazole-5-acetic acid], which inhibition at 10 µM is on record?
A: 25%

Q: With `Cc1ccc(-c2ncc(CC(=O)O)n2Cc2ccccc2)cc1` as the molecule, how does the inhibition at 10 µM read?
A: 5%

Same assay, conditions: Oryctolagus cuniculus, 0.25 h; Concn. of drug substance 10^-6 M; A II 4×10^-9 M; 15 minutes treatment; read-out: Potency of inhibition

Q: How did the inhibition at 1 µM turn out when `O=C(O)Cc1nc(C2CCCC2)n(Cc2ccccc2)c1Cl` was run?
A: 10%

Q: For `CCCCc1nc(CC(=O)O)c(Cl)n1Cc1ccccc1`, which inhibition at 1 µM is on record?
A: 22%

Q: How did the inhibition at 1 µM turn out when `CCCCc1nc(CC(=O)O)c(Cl)n1Cc1ccccc1Cl` was run?
A: 30%

Q: With `CCCCc1nc(Cl)c(CC(N)=O)n1Cc1ccccc1` [1-Benzyl-2-butyl-4-chloroimidazole-5-acetamide] as the molecule, how does the inhibition at 1 µM read?
A: 19%

From patent US4340598A, “Hypotensive imidazole derivatives” (Takeda Chemical Industries, Ltd., priority 1979, dated 1982)
